In patent US11046710B2, “Sulfonamide compounds” (DAIICHI SANKYO COMPANY, LIMITED, priority 2016, dated 2021):

System: plasma ALP (80-90% containing TNAP)
Test: Inhibitory test of plasma TNAP activity in B6 mouse
Format: in vivo
Details: oral, dose 0.3 mg/kg, average 0-6 h after administration
Description: After blood sampling from the tail vein using a heparin-treated hematocrit capillary tube (EM Meister Hematocrit Capillary Tube, AS ONE Corp.) (as the sample before compound administration), each test compound suspended in a 0.5% methylcellulose solution (powder purchased from Wako Pure Chemical Industries, Ltd. was adjusted to 0.5% with Otsuka distilled water) was administered orally to the mouse. 1, 2, 4, 6, and 24 hours after the administration, blood was collected from the tail vein using a heparin-treated hematocrit capillary tube to obtain a plasma sample. The plasma sample was added to an assay buffer (1 M Tris, 1 M MgCl2, 20 mM ZnCl2, and water, pH 7.5), and the mixture was left standing for 5 minutes. Then, the absorbance at 405 nm was measured and used as a blank. The substrate pNPP was added to the plasma sample and incubated at room temperature for 180 minutes. Then, the absorbance (ABS: 405 nm) was measured using a microplate reader (model plus 384, Molecular Devices, LLC), and the concentration of produced p-nitrophenol was calculated. The blank was subtracted from all measurement values to calculate TNAP activity at each time point with the TNAP activity of the sample before compound administration defined as 100%. The pharmaceutical effect of the test compound was evaluated by the average inhibition of plasma ALP (80-90% containing TNAP) activity for 6 hours from 0 hour to 6 hour after the administration of the test compound. It was calculated according to the following expression: 100−((plasma ALP activity at 0 hr+plasma ALP activity at 1 hr)*½+(plasma ALP activity at 1 hr+plasma ALP activity at 2 hr)*½+(plasma ALP activity at 2 hr+plasma ALP activity at 4 hr)*2/2+(plasma ALP activity at 4 hr+plasma ALP activity at 6 hr)*2/2)/6 The results are shown in Table 2.

Which “Plasma ALP inhibition (6 h ave. inhibition %)” value does the source give for `O=C1c2cc([N-]S(=O)(=O)c3cc(Cl)ccc3OC(F)(F)F)cnc2OC[C@H]2C[C@H](O)CN12.[K+]` [Example 33, Potassium {[5-chloro-2-(trifluoromethoxy)phenyl]sulfonyl}[(8S,9aR)-8-hydroxy-5-oxo-8,9,9a,10-tetrahydro-5H,7H-pyrido[3,2-f]pyrrolo[2,1-c][1,4]oxazepin-3-yl]azanide] here?
Its value is 59.0%.

With `O=C1c2cc([N-]S(=O)(=O)c3cc(Cl)ccc3OC(F)(F)F)cnc2OC[C@H]2C[C@@H](O)CN12.[K+]` [Example 38, Potassium {[5-chloro-2-(trifluoromethoxy)phenyl]sulfonyl}[(8R,9aR)-8-hydroxy-5-oxo-8,9,9a,10-tetrahydro-5H,7H-pyrido[3,2-f]pyrrolo[2,1-c][1,4]oxazepin-3-yl]azanide] as the compound, how does the “Plasma ALP inhibition (6 h ave. inhibition %)” value read?
Its value is 65.5%.

For `O=C1c2cc([N-]S(=O)(=O)c3cc(Cl)ccc3OC(F)(F)F)cnc2OC[C@H]2[C@@H](O)CCN12.[K+]` [Example 43, Potassium {[5-chloro-2-(trifluoromethoxy)phenyl]sulfonyl}[(9S,9aS)-9-hydroxy-5-oxo-8,9,9a,10-tetrahydro-5H,7H-pyrido[3,2-f]pyrrolo[2,1-c][1,4]oxazepin-3-yl]azanide], which “Plasma ALP inhibition (6 h ave. inhibition %)” value is on record?
Its value is 65.5%.

Same assay, conditions: oral, dose 1 mg/kg, average 0-6 h after administration

With `CNC(=O)O[C@H]1C[C@@H]2COc3ncc([N-]S(=O)(=O)c4cc(Cl)ccc4OC)cc3C(=O)N2C1.[K+]` [Example 49, Potassium [(5-chloro-2-methoxyphenyl)sulfonyl]{(8S,9aR)-8-[(methylcarbamoyl)oxy]-5-oxo-8,9,9a,10-tetrahydro-5H,7H-pyrido[3,2-f]pyrrolo[2,1-c][1,4]oxazepin-3-yl}azanide] as the compound, how does the “Plasma ALP inhibition (6 h ave. inhibition %)” value read?
The value was 52.8%.

`COC(=O)N[C@@H]1C[C@@H]2COc3ncc([N-]S(=O)(=O)c4cc(Cl)ccc4OC)cc3C(=O)N2C1.[K+]` [Example 51, Potassium [(5-chloro-2-methoxyphenyl)sulfonyl]{(8R,9aR)-8-[(methoxycarbonyl)amino]-5-oxo-8,9,9a,10-tetrahydro-5H, 7H-pyrido[3,2-f]pyrrolo[2,1-c][1,4]oxazepin-3-yl}azanide] was tested. Which “Plasma ALP inhibition (6 h ave. inhibition %)” value did it give?
Its value is 59.7%.

`COc1ccc(Cl)cc1S(=O)(=O)[N-]c1cnc2c(c1)CN1C(=O)[C@@H](O)C[C@H]1CO2.[K+]` [Example 55, Potassium [(5-chloro-2-methoxyphenyl)sulfonyl][(8S,9aS)-8-hydroxy-7-oxo-8,9,9a,10-tetrahydro-5H,7H-pyrido[3,2-f]pyrrolo[2,1-c][1,4]oxazepin-3-yl]azanide] was tested. Which “Plasma ALP inhibition (6 h ave. inhibition %)” value did it give?
The value was 65.7%.

With `CCOc1ccc(F)cc1S(=O)(=O)[N-]c1cnc2c(c1)CN1C(=O)COC[C@H]1CO2.[K+]` [Example 62, Potassium [(2-ethoxy-5-fluorophenyl)sulfonyl][(10aS)-7-oxo-7,8,10a,11-tetrahydro-5H,10H-[1,4]oxazino[3,4-c]pyrido[3,2-f][1,4]oxazepin-3-yl]azanide] as the compound, how does the “Plasma ALP inhibition (6 h ave. inhibition %)” value read?
The value was 76.0%.
